For test [1], the system named is r(CUG) repeat expansion. Description: Inhibition of d(CTG.CAG)90 transcription (unknown origin) assessed as inhibition of r(CUG)90 formation at 10 uM incubated for 3.5 hrs measured after 1.5 hrs in presence of T7 RNA polymerase by SDS-PAGE analysis relative to control. In kind it is nucleic-acid assay. As to conditions: Homo sapiens, time 5.0 hrs.
In test [2] the target is r(CUG) repeat expansion. Description: Inhibition of d(CTG.CAG)90 transcription (unknown origin) assessed as inhibition of r(CUG)90 formation incubated for 3.5 hrs measured after 1.5 hrs in presence of T7 RNA polymerase by SDS-PAGE analysis. The test is classed as nucleic-acid assay, Homo sapiens.
Test [3] deals with r(CUG) repeat expansion. As to the kind of experiment: Inhibition of d(CTG.CAG)90 transcription (unknown origin) assessed as inhibition of r(CUG)90 formation at 60 uM incubated for 3.5 hrs measured after 1.5 hrs in presence of T7 RNA polymerase by SDS-PAGE analysis. In kind it is nucleic-acid assay. The following applies: Homo sapiens, time 5.0 hrs.

Broadly, the inhibition is the drop in the measured response relative to a control, in per cent. Usually IC50 stands for the concentration at which inhibition is half-maximal.

Active and inactive are the calls of the source. The calls are words filed in the database; no cut-off is given here.

For the molecule `COc1ccc2nc3cc(Cl)ccc3c(NC/C=N/CCCCNc3nc(N)nc(NCCCC/N=C/c4ccc(CNc5nc(N)nc(N)n5)cc4)n3)c2c1`, the inhibition in test [1] was determined as 19.9%. In addition, the IC50 in test [2] came to 44 µM.
Take `N=C(NCCCCNc1nc(N)nc(NCc2ccc(/C=N/c3ccc(CNc4nc(N)nc(NCc5ccc(N)cc5)n4)cc3)cc2)n1)c1ccc(C(=N)NCCCCNc2nc(N)nc(NCc3ccc(CO)cc3)n2)cc1`: the inhibition entry in test [3] was “Active”. Moreover, the inhibition in test [1] turned out to be 34.8%. The IC50 in test [2] amounted to 25.9 µM.
In the case of `COc1ccc2nc3cc(Cl)ccc3c(NC/C=N/CCCCNC(=O)c3cccc4c(NCCCCNc5nc(N)nc(N)n5)c5ccccc5nc34)c2c1`, the inhibition in test [1] was determined as 23.2%. The half-maximal inhibitory concentration (IC50) in test [2] amounted to 36.2 µM.
Taken in the same sequence, the figures for `N=C(NCCCCNc1nc(N)nc(NCc2ccc(/C=N/CCCCn3cnc4c(N)ncnc43)cc2)n1)c1ccc(C(=N)NCCCCNc2nc(N)nc(NCc3ccc(/C=N/c4ccc(CNC(=N)c5ccc(C(=N)NCc6ccc(N)cc6)cc5)cc4)cc3)n2)cc1` were 13.9% and 34.2 µM.
As to `N=C(NCc1ccc(N)cc1)c1ccc(C(=N)NCc2ccc(/N=C/c3ccc(/C=N/CCCCNc4nc(N)nc(NCCCCN)n4)cc3)cc2)cc1`, the inhibition in test [1] turned out to be 21.3%. Besides, the IC50 in test [2] was above 60 µM.

Values taken from ChEMBL document CHEMBL5236571, “Dynamic Covalent Template-Guided Screen for Nucleic Acid-Targeting Agents” (J Med Chem, 2022).
